Assay results published in patent US20260097135A1, “MODIFIED ONCOLYTIC HERPES SIMPLEX VIRUS (oHSV) AND METHODS OF USE THEREOF” (The General Hospital Corporation, priority 2022, published 2026).
“Also recorded” adds a separate entry of the source.

B1: R-hIL12: recombinant hIL12 (R&D Systems) with known functional activity, positive control (protein, UniProt P29459 23-219; P29460 23-328, looked up)
Interleukin-12 subunit alpha: RNLPVATPDPGMFPCLHHSQNLLRAVSNMLQKARQTLEFYPCTSEEIDHEDITKDKTSTVEACLPLELTKNESCLNSRETSFITNGSCLASRKTSFMMALCLSSIYEDLKMYQVEFKTMNAKLLMDPKRQIFLDQNMLAVIDELMQALNFNSETVPQKSSLEEPDFYKTKIKLCILLHAFRIRAVTIDRVMSYLNAS
Interleukin-12 subunit beta: IWELKKDVYVVELDWYPDAPGEMVVLTCDTPEEDGITWTLDQSSEVLGSGKTLTIQVKEFGDAGQYTCHKGGEVLSHSLLLLHKKEDGIWSTDILKDQKEPKNKTFLRCEAKNYSGRFTCWWLTTISTDLTFSVKSSRGSSDPQGVTCGAATLSAERVRGDNKEYEYSVECQEDSACPAAEESLPIEVMVDAVHKLKYENYTSSFFIRDIIKPDPPKNLQLKPLKNSRQVEVSWEYPDTWSTPHSYFSLTFCVQVQGKSKREKKDRVFTDKTSATVICRKNASISVRAQDRYYSSSWSEWASVPCS

Tested on: human NK cell line NK-92MI
Assay: hIL-12 bioactivity: IFN-γ production by NK-92MI cells (ELISA)
Assay type: cell-based
Description: HIL12 levels were measured with the human p70 Quantikine ELISA kit (R&D Systems, Bio-Techne, Minneapolis, MN). Functional hIL12 was assessed using human NK cell line NK-92MI (ATCC (CRL-2408)) and hIL-12 induced IFN-γ production. Recombinant hIL12 (R-hIL12; R&D Systems) with known functional activity was used as a positive control. NK-92MI cells were seeded in a 48-well plate at 2×10^4 cells/well. hIL12 produced by virus-infected cells 64 hpi or R-hIL12 was added to NK-92MI cell cultures at the indicated concentrations (with or without 10 μg/ml heparin). HIL12-dependent secretion of IFN-γ into the supernatant was quantified after 24 hrs via ELISA (Human IFN-gamma Quantikine ELISA Kits (R&D systems)).

Molecule | effect of heparin on hIL-12-induced IFN-γ (heparin 10 μg/ml) | hIL-12 induced IFN-γ production by NK-92MI cells (hIL-12 from infected Vero supernatants (64 hpi) or recombinant, 24 hrs)
heparin | greatly enhanced the activity of hIL12; also recorded: synergizes with hIL-12 in stimulating hIFNγ production | –
B1 | – | dose-dependent manner
